Here are results for 18 molecules from PubChem BioAssay AID468 (The Scripps Research Institute Molecular Screening Center, 2006).

For this test, the target named is Sphingosine 1-phosphate receptor 1 (Homo sapiens) (UniProt P21453). Briefly: direct activation of human S1P1 – cell-based, agonist mode, 60K MLSMR set, dose response (AID 468). The note with it: S1P1 agonist cell-based assay.

Structures are written as SMILES. pEC50: −log10 of the molar value. The source made the active and inactive calls. No rule for the calls is given here.

Sphingosine 1-phosphate receptor 1 (Homo sapiens), sequence (P21453 whole entry, looked up): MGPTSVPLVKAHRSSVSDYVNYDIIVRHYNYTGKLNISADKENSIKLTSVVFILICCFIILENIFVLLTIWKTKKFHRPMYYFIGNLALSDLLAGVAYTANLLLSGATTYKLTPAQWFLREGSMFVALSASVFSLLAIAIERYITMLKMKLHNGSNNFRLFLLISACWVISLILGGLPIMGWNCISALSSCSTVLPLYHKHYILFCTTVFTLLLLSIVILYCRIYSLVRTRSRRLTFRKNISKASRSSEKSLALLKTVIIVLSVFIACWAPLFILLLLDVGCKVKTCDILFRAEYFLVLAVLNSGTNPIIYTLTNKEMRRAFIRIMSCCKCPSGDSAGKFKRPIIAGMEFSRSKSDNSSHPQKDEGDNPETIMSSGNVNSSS

By EC50 is commonly meant the concentration that produces a half-maximal response. As to `CCOc1ccc(C(C)=O)cc1N1C(=O)C2C3C=CC(O3)C2C1=O` (stereo not drawn), the EC50 result is “inactive”.
A word on the pEC50: it is the EC50 on a negative log10 scale, so that one unit is a factor of ten. On to `CC1(C)CC(=O)C(C=Nc2ccc3[nH]ncc3c2)=C(O)C1`, for which the pEC50 was 5.29.
Take `CCOC(=O)c1cccc2c1-c1ccccc1/C2=N/O`: the EC50 result was “inactive”.
Consider `CCC(=NCc1ccc2c(c1)OCO2)c1c(O)n(C2CCCCC2)c(=O)[nH]c1=O`, for which the pEC50 is 5.17.
Turning to `CC(=O)Oc1ccc(N2C(=O)C3C(C2=O)C2(C)C=CC3(C)O2)cc1` (stereo not drawn), the EC50 result was “inactive”.
Consider `C/C(N)=C(/C#N)C(=O)CSc1nc2cc(Cl)ccc2s1`, for which the EC50 result is “inactive”.
Consider `Cc1[nH]nc2c1C1(C(=O)N(Cc3ccc(Cl)cc3)c3ccccc31)C(C#N)=C(N)O2` (stereo not drawn), for which the EC50 entry is “inactive”.
With `COc1ccc(/C=N/O)cc1COc1ccc(NC(C)=O)cc1`, the EC50 is > 95 µM (inactive).
Regarding `CCC(=NCCOc1ccc(Cl)cc1)c1c(O)n(C)c(=O)n(C)c1=O`, the pEC50 is 5.30.
Consider `COc1ccc(N2C(=O)CC(Sc3ncn[nH]3)C2=O)c(OC)c1` (stereo not drawn), for which the EC50 entry was “inactive”.
`CCCCc1ccc(C2C(C#N)=C(N)SC(N)=C2C#N)s1`: the EC50 result is “inactive”.
As to `COc1ccc(/C(O)=C2/C(=O)C(=O)N(CC3CCCO3)C2c2cccc(OC)c2)cc1` (stereo not drawn), the EC50 is > 95.1 µM (inactive).
Consider `CC1=C(C(=O)OCc2ccc3c(c2)OCO3)C(c2ccc(F)cc2)NC(=O)N1` (stereo not drawn), for which the pEC50 was 6.36.
Consider `CC1=C(C(=O)OCc2ccc3c(c2)OCO3)C(c2ccccc2)NC(=O)N1` (stereo not drawn), for which the negative logarithm of the EC50 (pEC50) is 5.73.
`C/C(N)=C(/C#N)C(=O)CSc1nnc(SCc2ccc(Cl)cc2)s1`: the pEC50 is 5.05.
Take `CCC(=NC(C)c1ccccc1)c1c(O)n(C)c(=O)n(C)c1=O` (stereo not drawn): the EC50 entry was “inactive”.
Turning to `COC(=O)CC1SC(=O)NC1=Nc1ccccc1` (stereo not drawn), the EC50 is > 95 µM (inactive).
As for `O=C1C2C3C=CC(CO)(O3)C2C(=O)N1c1ccccc1-c1ccccc1` (stereo not drawn), the negative logarithm of the EC50 (pEC50) is 5.26.
